In PubChem BioAssay (NCI):
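Cultured in 96-well plates, cells were exposed to test compound for 48 hours across five concentrations. The concentration for full growth arrest is given as TGI.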

Assays:
Experiment in all cases: NCI anticancer screen, dose series, 48 h
[1] = tested on: TK-10 renal
[2] = tested on: U251 CNS
[3] = tested on: NCI/ADR-RES ovarian
[4] = tested on: RXF 393 renal
[5] = tested on: NCI-H226 lung
[6] = tested on: MDA-N
[7] = tested on: CAKI-1 renal
[8] = tested on: OVCAR-5 ovarian
[9] = tested on: M14 melanoma

With `COc1ccc(N2C(=O)C3c4[nH]c5ccc(OCc6ccccc6)cc5c4C4CCC(c5ccccc5)CC4C3C2=O)cc1` (stereo unspecified) the TGI [1] was 42.2 µM, the TGI [2] was 11.2 µM and the TGI [3] was greater than 100 µM. It also gave a TGI [4] of 21.1 µM, a TGI [5] greater than 83.8 µM and a TGI [6] greater than 100 µM. The TGI [7] was 25.8 µM, the TGI [8] was greater than 95.8 µM and the TGI [9] was greater than 100 µM.

`COc1cc(/C=C2\C(=O)N(c3cccc([N+](=O)[O-])c3)C(c3ccccc3)S2(=O)=O)cc(OC)c1OC` (stereo unspecified) gave a TGI [1] greater than 100 µM, a TGI [2] greater than 100 µM and a TGI [3] greater than 100 µM. For the same molecule, the TGI [4] was greater than 100 µM, the TGI [5] was greater than 100 µM and the TGI [6] was greater than 100 µM. The TGI [7] was greater than 100 µM, the TGI [8] was greater than 100 µM and the TGI [9] was greater than 100 µM.

Work on `Cn1nc2ccc([N+](=O)[O-])c(Cn3nnc4ccccc43)c2n1` yielded a TGI [1] greater than 100 µM, a TGI [2] greater than 100 µM and a TGI [3] greater than 100 µM. For the same molecule, the TGI [4] was greater than 100 µM, the TGI [5] was greater than 100 µM and the TGI [6] was greater than 100 µM. The TGI [7] was greater than 100 µM, the TGI [8] was greater than 100 µM and the TGI [9] was greater than 100 µM.

In the case of `O=C(O)CCc1nc2c(n1-c1ccccc1)C(=O)c1ccccc1C2=O`, the TGI [1] is reported as greater than 100 µM, the TGI [2] is reported as greater than 100 µM and the TGI [3] is reported as greater than 100 µM. It also gave a TGI [4] greater than 100 µM, a TGI [5] greater than 100 µM and a TGI [6] greater than 100 µM. For the same molecule, the TGI [7] was greater than 100 µM, the TGI [8] was greater than 100 µM and the TGI [9] was greater than 100 µM.

With `COc1cccc(N2C(=O)CSC2c2cccc(Oc3ccccc3)c2)c1` (stereo unspecified) the TGI [1] was 25.3 µM, the TGI [2] was 19.3 µM and the TGI [3] was 40.4 µM. For the same molecule, the TGI [4] was 39.1 µM, the TGI [5] was 69.1 µM and the TGI [6] was 5.53 µM. It also gave a TGI [7] of 14.3 µM, a TGI [8] greater than 100 µM and a TGI [9] of 51 µM.

`CCOC(=O)c1ccc(-n2[nH]nc(C(N)=O)c2=O)cc1` was tested, and the TGI [1] was greater than 100 µM, the TGI [2] was greater than 100 µM and the TGI [3] was greater than 100 µM. It also gave a TGI [4] greater than 100 µM, a TGI [5] greater than 100 µM and a TGI [6] greater than 100 µM. The TGI [7] was greater than 100 µM, the TGI [8] was greater than 100 µM and the TGI [9] was greater than 100 µM.

In the case of `CCC/C(Cl)=N\OC(=O)Nc1ccc(F)cc1`, the TGI [1] is reported as 29.2 µM, the TGI [2] is reported as 34.8 µM and the TGI [3] is reported as greater than 62.3 µM. For the same molecule, the TGI [4] was 33.1 µM, the TGI [5] was 43.4 µM and the TGI [6] was 30.2 µM. The TGI [7] was 3.47 µM, the TGI [8] was 36 µM and the TGI [9] was 29.6 µM.

In the case of `CC1=NNC(=O)C1C1C(=O)NN=C(c2c[nH]c3ccccc23)C1Br` (stereo unspecified), the TGI [1] is reported as greater than 100 µM, the TGI [2] is reported as greater than 100 µM and the TGI [3] is reported as greater than 100 µM. For the same molecule, the TGI [4] was greater than 100 µM, the TGI [5] was greater than 100 µM and the TGI [6] was greater than 100 µM. The TGI [7] was greater than 100 µM, the TGI [8] was greater than 100 µM and the TGI [9] was greater than 100 µM.

With `c1ccc(/C(=N/Nc2nc3ccccc3s2)C2CCCCC2)nc1` the TGI [1] was 14.5 µM, the TGI [2] was 35.9 µM and the TGI [3] was 10.3 µM. The TGI [4] was 24.8 µM, the TGI [5] was 27.5 µM and the TGI [6] was 34.2 µM. For the same molecule, the TGI [7] was 21.6 µM, the TGI [8] was 14.4 µM and the TGI [9] was 27.7 µM.
